Reference: ChEMBL document CHEMBL1201862, “PubChem BioAssay data set” (2004)
The source made the active and inactive calls.

Experiments:
[1] = target: T1, DNA repair protein RAD52 homolog (Homo sapiens, UniProt P43351); assay type: functional, biochemical
T1 sequence (P43351 whole entry): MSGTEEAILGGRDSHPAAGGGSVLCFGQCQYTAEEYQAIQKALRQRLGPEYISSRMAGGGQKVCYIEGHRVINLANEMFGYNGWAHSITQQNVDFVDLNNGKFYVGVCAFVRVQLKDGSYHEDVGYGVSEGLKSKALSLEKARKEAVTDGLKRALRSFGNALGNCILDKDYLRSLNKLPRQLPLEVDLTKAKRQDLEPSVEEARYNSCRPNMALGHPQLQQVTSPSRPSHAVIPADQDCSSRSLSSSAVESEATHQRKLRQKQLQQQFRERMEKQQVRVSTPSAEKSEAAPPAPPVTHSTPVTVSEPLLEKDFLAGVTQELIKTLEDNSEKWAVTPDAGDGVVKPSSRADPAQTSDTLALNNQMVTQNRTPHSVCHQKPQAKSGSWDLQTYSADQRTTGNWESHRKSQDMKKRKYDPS

Bcl-2-related protein A1 = target: T2, Bcl-2-related protein A1 (Mus musculus, UniProt Q07440); assay type: functional;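 note: confirmatory dose–response counterscreen on Bfl-1, used to check hits from a UBC13 polyubiquitin inhibitor campaign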
T2 sequence (Q07440 whole entry): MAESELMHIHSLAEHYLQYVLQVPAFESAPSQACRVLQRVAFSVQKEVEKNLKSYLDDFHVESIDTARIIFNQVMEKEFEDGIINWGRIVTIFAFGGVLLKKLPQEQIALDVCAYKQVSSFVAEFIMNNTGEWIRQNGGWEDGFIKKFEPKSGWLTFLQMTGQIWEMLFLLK

[2] = target: T3, Ubiquitin-conjugating enzyme E2 N (Homo sapiens, UniProt P61088); assay type: functional
T3 sequence (P61088 whole entry): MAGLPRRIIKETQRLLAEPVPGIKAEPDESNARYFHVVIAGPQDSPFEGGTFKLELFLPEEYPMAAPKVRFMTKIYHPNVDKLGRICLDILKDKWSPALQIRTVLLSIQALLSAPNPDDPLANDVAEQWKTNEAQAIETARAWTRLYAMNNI

[3] = target: T3, Ubiquitin-conjugating enzyme E2 N; assay type: functional; remark: listed apart in the source
Insulin-degrading enzyme [4] = target: T4, Insulin-degrading enzyme (Homo sapiens, UniProt P14735); assay: activators of recombinant IDE enzyme, dose response, counter-screen for IDE activator project, biochemical, fluorescence polarization (AID 588681)
T4 sequence (P14735 whole entry): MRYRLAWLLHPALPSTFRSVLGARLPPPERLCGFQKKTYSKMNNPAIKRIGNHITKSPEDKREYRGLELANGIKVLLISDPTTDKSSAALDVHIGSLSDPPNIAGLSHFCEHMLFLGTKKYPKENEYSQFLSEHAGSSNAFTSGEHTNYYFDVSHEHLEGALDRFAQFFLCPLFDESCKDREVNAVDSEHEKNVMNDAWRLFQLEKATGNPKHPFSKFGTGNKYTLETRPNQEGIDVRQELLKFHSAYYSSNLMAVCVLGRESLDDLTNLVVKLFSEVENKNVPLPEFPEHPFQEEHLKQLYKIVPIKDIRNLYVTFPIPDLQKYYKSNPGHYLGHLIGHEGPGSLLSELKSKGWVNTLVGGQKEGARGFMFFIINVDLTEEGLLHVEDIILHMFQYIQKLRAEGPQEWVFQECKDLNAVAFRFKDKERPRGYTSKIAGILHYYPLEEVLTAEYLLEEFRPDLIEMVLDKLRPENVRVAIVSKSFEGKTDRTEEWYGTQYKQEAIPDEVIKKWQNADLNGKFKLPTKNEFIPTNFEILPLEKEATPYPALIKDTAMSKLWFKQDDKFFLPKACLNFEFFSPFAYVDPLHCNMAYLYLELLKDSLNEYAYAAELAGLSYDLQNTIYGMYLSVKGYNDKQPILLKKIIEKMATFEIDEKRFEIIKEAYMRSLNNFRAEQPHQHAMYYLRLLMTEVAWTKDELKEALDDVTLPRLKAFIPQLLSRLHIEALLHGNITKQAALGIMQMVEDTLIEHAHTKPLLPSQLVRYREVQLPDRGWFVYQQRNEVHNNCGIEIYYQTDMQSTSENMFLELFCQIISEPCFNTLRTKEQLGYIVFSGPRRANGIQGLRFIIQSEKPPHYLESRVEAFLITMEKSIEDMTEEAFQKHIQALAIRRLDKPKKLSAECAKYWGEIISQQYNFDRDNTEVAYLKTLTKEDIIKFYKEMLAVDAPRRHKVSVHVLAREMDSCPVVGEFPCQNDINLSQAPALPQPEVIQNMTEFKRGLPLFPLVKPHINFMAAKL

Insulin-degrading enzyme [5] = target: T4, Insulin-degrading enzyme; assay: activators of endogenous IDE in HEK cells, dose response, cell-based, fluorescence polarization (AID 588439); assay type: functional
HEK293 [6] = assay: HEK cell cytotoxicity by LDH release, dose response, cytotoxicity control for IDE activator project, fluorescence, HEK cells (AID 588440); assay type: functional, cell-based, Homo sapiens; conditions: Homo sapiens, HEK293;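 note: cytotoxicity by LDH release measuring loss of membrane integrity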
HEK293 [7] = assay: optical interference in Abeta FP readout, dose response, artefact control for IDE activator project, biochemical, fluorescence polarization (AID 588442); assay type: functional, cell-based; conditions: Homo sapiens
[8] = target: T5, Adenosylmethionine-8-amino-7-oxononanoate aminotransferase (Mycobacterium tuberculosis, UniProt P9WQ81); assay: Mycobacterium tuberculosis BioA enzyme inhibitor Measured in Biochemical System Using Plate Reader - 2163-02_Inhibitor_Dose_CherryPick_Activity.; assay type: functional, Mycobacterium tuberculosis UT205
T5 sequence (P9WQ81 whole entry): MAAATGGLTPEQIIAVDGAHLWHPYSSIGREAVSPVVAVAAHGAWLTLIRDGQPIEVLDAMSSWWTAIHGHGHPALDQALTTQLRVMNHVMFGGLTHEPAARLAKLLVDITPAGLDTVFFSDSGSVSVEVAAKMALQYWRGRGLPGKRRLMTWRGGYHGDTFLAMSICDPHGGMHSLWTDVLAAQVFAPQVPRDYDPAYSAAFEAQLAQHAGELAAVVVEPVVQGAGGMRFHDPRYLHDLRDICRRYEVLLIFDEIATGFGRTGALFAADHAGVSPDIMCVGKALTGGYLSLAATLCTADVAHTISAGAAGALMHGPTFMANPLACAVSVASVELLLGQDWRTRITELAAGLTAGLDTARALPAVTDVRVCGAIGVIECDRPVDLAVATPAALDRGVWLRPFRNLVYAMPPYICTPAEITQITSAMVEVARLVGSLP

[9] = target: T6, Long-chain-fatty-acid--AMP ligase FadD28 (Mycobacterium tuberculosis, UniProt P9WQ59); assay: Fluorescence polarization aasay to screen for inhibitors that compete for the binding of FadD28 to a bisubstrate Measured in Biochemical System Using Plate Reader - 2147-01_Inhibitor_Dose_CherryPick_Activity.; assay type: functional, Mycobacterium tuberculosis H37Rv
T6 sequence (P9WQ59 whole entry): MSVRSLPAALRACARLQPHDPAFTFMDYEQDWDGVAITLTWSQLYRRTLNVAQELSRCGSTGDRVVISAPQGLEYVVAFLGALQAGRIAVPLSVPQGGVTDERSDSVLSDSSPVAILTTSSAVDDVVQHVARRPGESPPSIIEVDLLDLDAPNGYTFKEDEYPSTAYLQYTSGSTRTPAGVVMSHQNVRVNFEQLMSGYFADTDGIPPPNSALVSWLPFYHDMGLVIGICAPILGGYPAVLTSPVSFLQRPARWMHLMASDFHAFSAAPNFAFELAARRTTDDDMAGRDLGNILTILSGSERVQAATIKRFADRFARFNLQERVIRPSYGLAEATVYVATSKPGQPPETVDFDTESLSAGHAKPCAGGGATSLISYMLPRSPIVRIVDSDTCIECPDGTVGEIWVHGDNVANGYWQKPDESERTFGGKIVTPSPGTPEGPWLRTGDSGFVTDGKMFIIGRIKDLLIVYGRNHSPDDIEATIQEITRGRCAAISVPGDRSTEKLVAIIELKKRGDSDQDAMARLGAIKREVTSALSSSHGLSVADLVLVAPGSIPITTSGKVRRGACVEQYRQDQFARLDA

[10] = HEp-2 cell cytotoxicity, dose response, cytotoxicity control for RSV inhibitor project, HTS (AID 2410); assay type: functional; conditions: human respiratory syncytial virus
[11] = target: Intestinal-type alkaline phosphatase (Mus musculus, UniProt P24822); assay: PubChem AID 488785; assay type: functional
[12] = target: T7, Alkaline phosphatase, tissue-nonspecific isozyme (Homo sapiens, UniProt P05186); assay: TNAP enzyme inhibition by screening hits, dose response, selectivity assay for mouse IAP inhibitor project, biochemical, human TNAP, uHTS hits (AID 488906); assay type: functional
T7 sequence (P05186 whole entry): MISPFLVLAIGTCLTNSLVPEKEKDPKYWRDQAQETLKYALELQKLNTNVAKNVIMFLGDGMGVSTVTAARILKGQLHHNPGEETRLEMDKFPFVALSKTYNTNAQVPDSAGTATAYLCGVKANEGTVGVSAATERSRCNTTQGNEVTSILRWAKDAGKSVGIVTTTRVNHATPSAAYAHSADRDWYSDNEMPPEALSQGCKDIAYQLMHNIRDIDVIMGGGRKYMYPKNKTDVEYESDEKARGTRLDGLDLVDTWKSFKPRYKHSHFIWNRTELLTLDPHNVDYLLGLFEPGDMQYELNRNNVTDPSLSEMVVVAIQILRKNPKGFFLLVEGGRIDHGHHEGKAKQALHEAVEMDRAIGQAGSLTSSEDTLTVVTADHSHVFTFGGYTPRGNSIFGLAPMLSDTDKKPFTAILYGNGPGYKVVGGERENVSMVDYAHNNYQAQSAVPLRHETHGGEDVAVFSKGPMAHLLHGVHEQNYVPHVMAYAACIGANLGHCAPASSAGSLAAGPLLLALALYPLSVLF

[13] = target: Intestinal-type alkaline phosphatase (Homo sapiens, UniProt P09923); assay: inhibition of human intestinal alkaline phosphatase – biochemical, dose response (AID 488876); assay type: functional
Beta-galactosidase = Beta-galactosidase (Escherichia coli, UniProt Q8VNN2); assay: PubChem AID 485352; assay type: functional
[14] = target: T8, Type-1 angiotensin II receptor (Homo sapiens, UniProt P30556); assay: AT1 receptor antagonists, dose response, selectivity assay for APJ receptor antagonist project, cell-based, uHTS hits (AID 463214); assay type: functional;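 note: antagonist potency against angiotensin II stimulated AT1 response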
T8 sequence (P30556 whole entry): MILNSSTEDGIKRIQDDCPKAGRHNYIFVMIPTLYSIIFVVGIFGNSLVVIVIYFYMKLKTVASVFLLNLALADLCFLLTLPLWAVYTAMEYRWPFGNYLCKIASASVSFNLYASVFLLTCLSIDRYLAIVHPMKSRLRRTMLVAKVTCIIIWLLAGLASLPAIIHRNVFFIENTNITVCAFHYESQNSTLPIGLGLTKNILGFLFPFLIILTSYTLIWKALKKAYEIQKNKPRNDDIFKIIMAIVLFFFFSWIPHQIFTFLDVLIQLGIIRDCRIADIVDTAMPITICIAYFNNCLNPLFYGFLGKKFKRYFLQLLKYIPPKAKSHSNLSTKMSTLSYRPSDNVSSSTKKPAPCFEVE

Sequence of Intestinal-type alkaline phosphatase (Homo sapiens, UniProt P09923) (P09923 whole entry): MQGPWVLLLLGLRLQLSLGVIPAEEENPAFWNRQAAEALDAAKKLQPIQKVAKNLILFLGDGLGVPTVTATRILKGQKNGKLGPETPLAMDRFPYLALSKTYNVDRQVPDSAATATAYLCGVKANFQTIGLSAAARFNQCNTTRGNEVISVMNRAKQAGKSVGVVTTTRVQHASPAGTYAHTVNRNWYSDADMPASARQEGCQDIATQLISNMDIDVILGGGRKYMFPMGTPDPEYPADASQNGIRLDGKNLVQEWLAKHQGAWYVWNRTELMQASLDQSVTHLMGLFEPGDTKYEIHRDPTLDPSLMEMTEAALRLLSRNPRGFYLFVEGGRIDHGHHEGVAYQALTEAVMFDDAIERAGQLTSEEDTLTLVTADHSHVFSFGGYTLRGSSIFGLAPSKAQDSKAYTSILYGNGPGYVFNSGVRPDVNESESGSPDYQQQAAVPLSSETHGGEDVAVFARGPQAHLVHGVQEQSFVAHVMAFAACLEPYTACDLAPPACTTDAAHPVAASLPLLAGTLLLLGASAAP
Sequence of Beta-galactosidase (Q8VNN2 whole entry): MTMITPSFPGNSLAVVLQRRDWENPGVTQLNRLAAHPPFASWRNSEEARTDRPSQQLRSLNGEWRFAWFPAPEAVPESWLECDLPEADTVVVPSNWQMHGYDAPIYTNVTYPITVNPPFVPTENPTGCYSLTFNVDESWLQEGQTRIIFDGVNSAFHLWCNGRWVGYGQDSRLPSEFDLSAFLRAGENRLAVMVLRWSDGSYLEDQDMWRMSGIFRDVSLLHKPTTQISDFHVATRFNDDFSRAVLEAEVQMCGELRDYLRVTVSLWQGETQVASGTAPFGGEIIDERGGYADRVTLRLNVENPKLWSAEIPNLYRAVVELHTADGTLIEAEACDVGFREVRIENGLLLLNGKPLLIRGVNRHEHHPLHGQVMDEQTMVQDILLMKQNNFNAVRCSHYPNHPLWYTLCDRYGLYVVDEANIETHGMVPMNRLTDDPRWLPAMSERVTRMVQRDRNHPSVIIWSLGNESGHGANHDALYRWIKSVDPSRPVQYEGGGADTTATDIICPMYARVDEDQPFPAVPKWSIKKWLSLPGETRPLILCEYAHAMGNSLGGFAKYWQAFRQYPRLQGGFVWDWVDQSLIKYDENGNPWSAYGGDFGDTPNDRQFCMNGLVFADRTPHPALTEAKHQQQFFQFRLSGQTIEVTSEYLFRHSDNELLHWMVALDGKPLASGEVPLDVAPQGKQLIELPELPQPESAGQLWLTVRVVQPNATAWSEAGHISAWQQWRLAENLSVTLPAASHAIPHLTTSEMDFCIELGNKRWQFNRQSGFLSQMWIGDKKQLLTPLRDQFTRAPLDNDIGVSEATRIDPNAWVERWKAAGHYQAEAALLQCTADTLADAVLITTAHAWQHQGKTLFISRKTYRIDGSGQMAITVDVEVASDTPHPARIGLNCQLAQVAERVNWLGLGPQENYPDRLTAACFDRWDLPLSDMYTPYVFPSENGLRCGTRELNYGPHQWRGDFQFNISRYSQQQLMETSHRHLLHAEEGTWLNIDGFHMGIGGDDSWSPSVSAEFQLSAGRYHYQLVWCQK
Sequence of Intestinal-type alkaline phosphatase (Mus musculus, UniProt P24822) (P24822 whole entry): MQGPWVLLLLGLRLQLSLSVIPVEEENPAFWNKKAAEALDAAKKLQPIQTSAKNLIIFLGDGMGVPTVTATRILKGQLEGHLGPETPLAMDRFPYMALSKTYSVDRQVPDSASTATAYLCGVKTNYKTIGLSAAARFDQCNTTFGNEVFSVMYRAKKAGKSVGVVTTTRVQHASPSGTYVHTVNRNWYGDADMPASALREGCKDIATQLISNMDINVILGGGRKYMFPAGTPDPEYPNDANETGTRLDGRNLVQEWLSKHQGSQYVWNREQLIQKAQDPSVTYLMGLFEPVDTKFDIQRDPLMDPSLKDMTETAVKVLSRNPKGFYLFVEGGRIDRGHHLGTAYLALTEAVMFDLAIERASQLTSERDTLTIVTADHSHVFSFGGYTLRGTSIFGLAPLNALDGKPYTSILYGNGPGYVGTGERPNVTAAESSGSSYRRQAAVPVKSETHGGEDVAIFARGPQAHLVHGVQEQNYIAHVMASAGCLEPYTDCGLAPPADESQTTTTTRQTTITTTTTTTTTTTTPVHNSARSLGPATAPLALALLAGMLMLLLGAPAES

In the case of `NCCCC[C@H]1CN=C(S)N1CCCCC1CCCCC1`, the AC50 [1] is reported as 10.9 µM (active).
For `C#CCOCCOCCOCCNc1nc(N2CCN(C(=O)CCCCCCCCCCNC(=O)[C@H](CCCCN)n3cc(C)nn3)CC2)nc(N2CCN(C(=O)CCCCCCCCCCNC(=O)[C@@H]([C@H](C)O)n3cc(C)nn3)CC2)n1`, the IC50 (Bcl-2-related protein A1) was > 20 µM (inactive), the IC50 [2] was 11.1 µM (active) and the IC50 [3] was 6.61 µM (active). The EC50 (Insulin-degrading enzyme [4]) was > 54.7 µM (inactive), the EC50 (Insulin-degrading enzyme [5]) was > 54.7 µM (inactive) and the IC50 (HEK293 [6]) was 11.4 µM (inactive). The EC50 (HEK293 [7]) was > 54.7 µM (inactive).
For `COc1cccc(-c2ccc3c(c2)[C@H]2[C@H](CCN2C(=O)C2CCC2)[C@@H](CO)N3)c1`, the AC50 [8] was 7.13 µM (active).
With `COC(=O)c1ccc(NC(S)=NC2c3ccccc3CC2O)cc1` (centres undefined) the AC50 [9] was 26.6 µM (active).
For `C#CCOCCOCCOCCNc1nc(N2CCN(C(=O)CCCCCCCCCCNC(=O)[C@@H](CCSC)n3cc(CCO)nn3)CC2)nc(N2CCN(C(=O)CCCCCCCCCCNC(=O)[C@H]([C@@H](C)CC)n3cc(CCCCN=C(N)N)nn3)CC2)n1`, the CC50 [10] was 16 µM (active), the IC50 (Bcl-2-related protein A1) was 5.51 µM (active) and the IC50 [2] was 5.82 µM (active). For the same compound, the IC50 [11] was 1.66 µM (active), the IC50 [3] was 3.81 µM (active) and the IC50 [12] was 58.7 µM (active). The IC50 [13] was > 100 µM (inactive), the EC50 (Insulin-degrading enzyme [4]) was 2.36 µM (active) and the EC50 (Insulin-degrading enzyme [5]) was > 2.03 µM (active). For the same compound, the IC50 (HEK293 [6]) was 4.44 µM (active) and the EC50 (HEK293 [7]) was > 56 µM (inactive).
For `O=C(NNC(=S)Nc1ccc(Cl)cc1Cl)c1ccc(N2CCOCC2)c([N+](=O)[O-])c1`, the EC50 (Beta-galactosidase) was > 40 µM (inactive), the IC50 [14] was > 40 µM (not active) and the AC50 [9] was 40.2 µM (active).
